The IC50 is the concentration at which inhibition is half-maximal.

Where only a bound is given, the exact number is not on record here.

The nature of assay [1]: Resistance index, ratio of IC50 for antiproliferation activity against human MDA-MB-435/LCC6MDR cells to IC50 for antiproliferation activity against human MDA-MB-435 cells assessed as cell growth inhibition measured after 72 hrs by MTS assay. It is filed as functional.
The subject of assay [2] is A-375. The assay is described as follows: cells. The following applies: Homo sapiens, A-375, 72 h.
The test system of assay [3] is MDA-MB-435. Put plainly: cells. The settings on record: Homo sapiens, MDA-MB-435, 72 h.
In assay [4] the test system is RPMI-7951. Put plainly: cells. The settings on record: Homo sapiens, RPMI-7951, 72 h.
Assay [5] relates to MDA-MB-453. The assay is described as follows: cells. The following applies: Homo sapiens, MDA-MB-453, 72 h.
Assay [6] has as its system SK-BR-3. Put plainly: cells. The settings on record: Homo sapiens, SK-BR-3, 72 h.
In assay [7] the test system is MDA-MB-435/LCC6MDR1. Put plainly: cells. The following applies: Homo sapiens, MDA-MB-435, 72 h.

Regarding `Cc1cccc(-c2cc(COCc3ccc(C(C)C)cc3)c3cccnc3c2O)c1`, the “Ratio IC50” value in assay [1] is 0.6. For the same compound, the IC50 in assay [2] worked out at 700 nM; in assay [3], 1.8 µM; in assay [4], 1100 nM; in assay [5], 1700 nM; in assay [6], 3.3 µM; in assay [7], 1000 nM.
As for `CCN(CC)Cc1cc(Cn2ncc(-c3ccc(C(F)(F)F)cc3)n2)c2cccnc2c1O`, in assay [1], the “Ratio IC50” value is given as 0.5. For the same compound, the IC50 in assay [2] is 1000 nM; in assay [3], 3.8 µM; in assay [4], 1900 nM; in assay [5] it was 6200 nM; in assay [6], 4 µM; in assay [7], 1700 nM.
On to `Oc1c(CN2CCCC2)cc(Cn2ncc(-c3ccc(C(F)(F)F)cc3)n2)c2cccnc12`, for which the “Ratio IC50” value in assay [1] worked out at 0.3. Moreover, the IC50 came to 800 nM in assay [2]; 4.1 µM in assay [3]; 1600 nM in assay [4]; 3500 nM in assay [5]; 3.2 µM in assay [6]; 1100 nM in assay [7].
Consider `Oc1c(CN2CCCC2)cc(Cn2ncc(-c3ccc(OCc4ccccc4)cc3)n2)c2cccnc12`, for which the “Ratio IC50” value in assay [1] is 0.7. The IC50 came to 900 nM in assay [2]; 3.2 µM in assay [3]; 600 nM in assay [4]; 1800 nM in assay [5]; 2.7 µM in assay [6]; 2200 nM in assay [7].
As for `Cc1ccc(-c2cnn(Cc3cc(CN4CCCC4)c(O)c4ncccc34)n2)cc1`, in assay [1], the “Ratio IC50” value came to 0.4. The half-inhibitory concentration (IC50) in assay [3] is 2 µM; in assay [4] it was 600 nM; in assay [5], 2900 nM; in assay [6] it was 2.9 µM; in assay [7], 700 nM.
Turning to `CCc1ccc(-c2cnn(Cc3cc(CN4CCCC4)c(O)c4ncccc34)n2)cc1`, the “Ratio IC50” value in assay [1] is on record as 0.3. Further, the IC50 in assay [2] came out at 700 nM; in assay [3], 3.2 µM; in assay [4] it was 700 nM; in assay [5] it was 3300 nM; in assay [6], 3.3 µM; in assay [7] it was 1000 nM.
For `Oc1c(CN2CCNCC2)cc(Cn2ncc(-c3ccc(Br)cc3)n2)c2cccnc12`, the Ratio IC50 in assay [1] was 1.1. Moreover, the IC50 in assay [2] is 800 nM; in assay [3] it was 4.7 µM; in assay [4], 600 nM; in assay [5] it was 2000 nM; in assay [6], 2.4 µM; in assay [7], 5100 nM.
Turning to `N#Cc1ccc(-c2cnn(Cc3cc(CN4CCCC4)c(O)c4ncccc34)n2)cc1`, the “Ratio IC50” value in assay [1] is given as 0.3. Also, the IC50 was determined as 1000 nM in assay [2]; 5.9 µM in assay [3]; 800 nM in assay [4]; 4100 nM in assay [5]; 6 µM in assay [6]; 1800 nM in assay [7].
Take `Oc1c(CN2CCCCCC2)cc(Cn2ncc(-c3ccc(C(F)(F)F)cc3)n2)c2cccnc12`: the “Ratio IC50” value in assay [1] is listed as 0.5. Also, the IC50 in assay [2] came out at 900 nM; in assay [3], 3.1 µM; in assay [4] it was 2100 nM; in assay [5], 6300 nM; in assay [6], 4.2 µM; in assay [7], 1600 nM.
In the case of `Oc1c(CN2CCOCC2)cc(Cn2ncc(-c3ccc(Br)cc3)n2)c2cccnc12`, in assay [1], the “Ratio IC50” value is reported as 0.4. The IC50 stood at 1000 nM in assay [2]; 2.4 µM in assay [3]; 700 nM in assay [4]; 2400 nM in assay [5]; 3 µM in assay [6]; 900 nM in assay [7].
As for `Oc1c(CN2CCCC2)cc(Cn2ncc(-c3ccsc3)n2)c2cccnc12`, the “Ratio IC50” value in assay [1] is recorded as 0.3. For the same compound, the IC50 is 1100 nM in assay [2]; 4.8 µM in assay [3]; 1300 nM in assay [4]; 2200 nM in assay [5]; 2.7 µM in assay [6]; 1600 nM in assay [7].
With `CC(C)c1ccc(COCc2cc(CN3CCCC3)c(O)c3ncccc23)cc1`, the “Ratio IC50” value in assay [1] is listed as 0.6. Besides, the IC50 in assay [2] turned out to be 1000 nM; in assay [3], 3.5 µM; in assay [4] it was 1100 nM; in assay [5], 1600 nM; in assay [6], 2.3 µM; in assay [7], 2100 nM.
As to `Oc1c(CN2CCCC2)cc(Cn2ncc(-c3ccccc3Br)n2)c2cccnc12`, in assay [1], the “Ratio IC50” value is on record as 0.2. For the same compound, the IC50 turned out to be 700 nM in assay [2]; 2.4 µM in assay [3]; 700 nM in assay [4]; 3100 nM in assay [5]; 3 µM in assay [6]; 500 nM in assay [7].
On to `CC(C)c1ccc(-c2cnn(Cc3cc(CN4CCCC4)c(O)c4ncccc34)n2)cc1`, for which the “Ratio IC50” value in assay [1] was 0.4. Besides, the IC50 in assay [2] is 1100 nM; in assay [3], 4.6 µM; in assay [4], 2300 nM; in assay [5] it was 5900 nM; in assay [6], 4.9 µM; in assay [7] it was 1700 nM.
`Oc1c(CN2CCCC2)cc(Cn2cnc(-c3ccccc3)c2)c2cccnc12`: the “Ratio IC50” value in assay [1] is listed as 0.1. In addition, the half-inhibitory concentration (IC50) in assay [2] was 2200 nM; in assay [3], 8.9 µM; in assay [4], 2800 nM; in assay [5], 3100 nM; in assay [6], 6.9 µM; in assay [7], 1300 nM.
With `CC(C)c1ccc(COCc2cc(-c3ccc(C(F)(F)F)cc3)c(O)c3ncccc23)cc1`, the “Ratio IC50” value in assay [1] amounted to 0.6. Besides, the IC50 in assay [2] amounted to 900 nM; in assay [3], 1.9 µM; in assay [4], 1300 nM; in assay [5] it was 4400 nM; in assay [6], 5.7 µM; in assay [7], 1200 nM.
Turning to `CC(C)c1ccc(COCc2cc(Br)c(O)c3ncccc23)cc1`, the “Ratio IC50” value in assay [1] is listed as 0.1. Moreover, the IC50 in assay [2] was 1000 nM; in assay [3] it was 2.1 µM; in assay [4], 800 nM; in assay [5] it was 1300 nM; in assay [6] it was 5.7 µM; in assay [7] it was 200 nM.
`Oc1c(CN2CCCC2)cc(COC2CCc3ccccc3C2)c2cccnc12` (configuration not stated): the “Ratio IC50” value in assay [1] was found to be 0.4. Also, the IC50 in assay [2] was 1000 nM; in assay [3], 3.3 µM; in assay [4], 800 nM; in assay [6], 3.9 µM; in assay [7] it was 1300 nM.
Consider `Cc1ccc(-c2cc(COCc3ccc(C(C)C)cc3)c3cccnc3c2O)cc1`, for which the “Ratio IC50” value in assay [1] was 1.3. For the same compound, the 50% inhibitory concentration (IC50) was 800 nM in assay [2]; 1.8 µM in assay [3]; 700 nM in assay [4]; 900 nM in assay [5]; 1.6 µM in assay [6]; 2300 nM in assay [7].
Consider `COc1ccc(-c2cc(COCc3ccc(C(C)C)cc3)c3cccnc3c2O)cc1`, for which, in assay [1], the “Ratio IC50” value was found to be 1.6. The IC50 was 800 nM in assay [2]; 1.9 µM in assay [3]; 600 nM in assay [4]; 800 nM in assay [5]; 1.3 µM in assay [6]; 3000 nM in assay [7].
In the case of `COc1ccc(-c2cnn(Cc3cc(CN4CCCC4)c(O)c4ncccc34)n2)cc1`, in assay [1], the “Ratio IC50” value was determined as 0.3. Moreover, the half-inhibitory concentration (IC50) in assay [2] was determined as 900 nM; in assay [3] it was 3.9 µM; in assay [4] it was 900 nM; in assay [5], 2200 nM; in assay [6] it was 2.8 µM; in assay [7], 1400 nM.
Consider `O=[N+]([O-])c1ccc(-c2cnn(Cc3cc(CN4CCCC4)c(O)c4ncccc34)n2)cc1`, for which, in assay [1], the “Ratio IC50” value was 0.3. Moreover, the concentration for half-maximal inhibition (IC50) in assay [2] is 700 nM; in assay [3], 4.1 µM; in assay [4] it was 700 nM; in assay [5], 4100 nM; in assay [6], 3.6 µM; in assay [7], 1100 nM.
With `CC(C)c1ccc(COCc2cc(-c3ccnc4ccccc34)c(O)c3ncccc23)cc1`, the “Ratio IC50” value in assay [1] was determined as 0.8. Besides, the IC50 in assay [2] worked out at 800 nM; in assay [3], 1.2 µM; in assay [4], 700 nM; in assay [5] it was 1700 nM; in assay [6], 3.1 µM; in assay [7], 1000 nM.
Take `Oc1c(CN2CCCC2)cc(COC2Cc3ccccc3C2)c2cccnc12`: the “Ratio IC50” value in assay [1] is 1. Also, the IC50 turned out to be 1900 nM in assay [2]; 2.2 µM in assay [3]; 1300 nM in assay [4]; 2400 nM in assay [5]; 5.9 µM in assay [6]; 2200 nM in assay [7].
As for `Oc1c(CN2CCCC2)cc(Cn2ncc(-c3ccccc3)n2)c2cccnc12`, the “Ratio IC50” value in assay [1] is 0.1. The IC50 in assay [2] was found to be 2000 nM; in assay [3], 5 µM; in assay [4], 3100 nM; in assay [5], 2900 nM; in assay [6], 4 µM; in assay [7] it was 600 nM.
In the case of `CC(C)c1ccc(COCc2cc(-c3ccsc3)c(O)c3ncccc23)cc1`, the “Ratio IC50” value in assay [1] came to 0.9. The IC50 turned out to be 600 nM in assay [2]; 1.1 µM in assay [3]; 500 nM in assay [4]; 600 nM in assay [5]; 0.8 µM in assay [6]; 900 nM in assay [7].
As for `COCC[n+]1c2c(n(Cc3cnccn3)c1C)C(=O)c1ccccc1C2=O.[Br-]` [SEPANTRONIUM BROMIDE], the “Ratio IC50” value in assay [1] was greater than 425. In assay [7], this compound showed an IC50 greater than 1000 nM.

Values taken from ChEMBL document CHEMBL4828732, “Synthesis and biological evaluation of selective survivin inhibitors derived from the MX-106 hydroxyquinoline scaffold” (Eur J Med Chem, 2021).
